Data from PubChem BioAssay AID200 (DTP/NCI, 2004).
Where “and” joins values, the source holds several entries; their conditions need not be identical. Equal entries are not always repeated. Inconclusive results and toxic doses are left out.

Test system: B6C3F1 mice, B16 melanoma ip, median survival T/C
Experiment: NCI In Vivo Anticancer Drug Screen. Data for tumor model B16 Melanoma (intraperitoneal) in B6C3F1 mice
Conditions: endpoint: median survival time, schedule: Q01DX009 (ip), higher = longer survival
In short: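 Readout: survival or tumor size in treated mice relative to vehicle controls (T/C). Model uses transplantable tumors grown in mice.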

[1] = dose: 1.56 mg/kg/injection, vehicle: Klucel (hydroxypropylcellulose) (HPC)
[2] = dose: 6.25 mg/kg/injection, vehicle: Klucel (hydroxypropylcellulose) (HPC)
[3] = dose: 12.5 mg/kg/injection, vehicle: Klucel (hydroxypropylcellulose) (HPC)
[4] = dose: 100.0 mg/kg/injection, vehicle: saline
[5] = dose: 200.0 mg/kg/injection, vehicle: saline
[6] = dose: 400.0 mg/kg/injection, vehicle: saline
[7] = dose: 50.0 mg/kg/injection, vehicle: saline with Tween-80
[8] = dose: 100.0 mg/kg/injection, vehicle: saline with Tween-80
[9] = dose: 200.0 mg/kg/injection, vehicle: saline with Tween-80
[10] = dose: 400.0 mg/kg/injection, vehicle: saline with Tween-80
[11] = dose: 25.0 mg/kg/injection, vehicle: saline with Tween-80
[12] = dose: 12.5 mg/kg/injection, vehicle: saline
[13] = dose: 25.0 mg/kg/injection, vehicle: saline
[14] = dose: 50.0 mg/kg/injection, vehicle: saline
[15] = dose: 100.0 mg/kg/injection, vehicle: Klucel (hydroxypropylcellulose) (HPC)
[16] = dose: 200.0 mg/kg/injection, vehicle: Klucel (hydroxypropylcellulose) (HPC)

Question: Which results are given for `COC(=O)C1OC(OC2=C(c3ccc(OC)cc3)C(=O)C(OC3OC(C(=O)OC)C(OC(C)=O)C(OC(C)=O)C3OC(C)=O)=C(c3ccc(OC)cc3)C2=O)C(OC(C)=O)C(OC(C)=O)C1OC(C)=O` (centres undefined)?
Answer: T/C (dose: 0.78 mg/kg/injection, vehicle: Klucel (hydroxypropylcellulose) (HPC)): 109 % of control; T/C [1]: 109 % of control; T/C (dose: 3.13 mg/kg/injection, vehicle: Klucel (hydroxypropylcellulose) (HPC)): 99 % of control; T/C [2]: 102 % of control; T/C [3]: 93 % of control

Question: With `CSCCC(NC(=O)CN)C(=O)O` (centres undefined) as the molecule, how does the T/C [4] read?
Answer: Its T/C is 87 % of control.

Question: And the T/C [5]?
Answer: The T/C was 90 % of control.

Question: What about the T/C [6] of the same molecule?
Answer: The T/C was 91 % of control.

Question: With `CC(C)(C)c1ccc(C(=O)N2CCOC23CCCCC3)cc1` as the molecule, how does the T/C [7] read?
Answer: The T/C was 91 % of control and 101 % of control.

Question: And the T/C [8]?
Answer: Its T/C is 98 % of control and 107 % of control.

Question: And the T/C [9]?
Answer: The T/C was 94 % of control and 104 % of control.

Question: And the T/C [10]?
Answer: The T/C was 91 % of control and 104 % of control.

Question: What about the T/C (dose: 800.0 mg/kg/injection, vehicle: saline with Tween-80) of the same molecule?
Answer: Its T/C is 92 % of control and 98 % of control.

Question: Which results are given for `CC[C@](O)(C(=O)O)c1cc2n(c(=O)c1CO)Cc1cc3ccccc3nc1-2`?
Answer: T/C (dose: 0.75 mg/kg/injection, vehicle: water): 117 % of control; T/C (dose: 1.5 mg/kg/injection, vehicle: water): 154 % of control; T/C (dose: 3.0 mg/kg/injection, vehicle: water): 169 % of control

Question: `CN(C)C1C(=O)C(C(=O)NP(=O)(NCCCO)N(CCCl)CCCl)=C(O)C2(O)C(=O)C3=C(O)c4c(O)cccc4C(C)(O)C3CC12` (centres undefined) was tested. Which T/C (dose: 12.0 mg/kg/injection, vehicle: saline with Tween-80) did it give?
Answer: Its T/C is 105 % of control.

Question: And the T/C [11]?
Answer: Its T/C is 103 % of control and 107 % of control.

Question: What about the T/C [7] of the same molecule?
Answer: The T/C was 118 % of control and 102 % of control.

Question: What about the T/C [8] of the same molecule?
Answer: Its T/C is 121 % of control.

Question: What about the T/C [9] of the same molecule?
Answer: Its T/C is 195 % of control and 219 % of control.

Question: How did the T/C [11] turn out when `Cc1cc(Br)c2nsnc2c1[N+](=O)[O-]` was run?
Answer: The T/C was 95 % of control.

Question: And the T/C [7]?
Answer: Its T/C is 95 % of control.

Question: What about the T/C [8] of the same molecule?
Answer: Its T/C is 103 % of control.

Question: And the T/C [9]?
Answer: The T/C was 90 % of control.

Question: Which results are given for `[CH3][Sn]([CH3])([Cl])[S]CCN`?
Answer: T/C (dose: 3.12 mg/kg/injection, vehicle: saline): 109 % of control and 102 % of control; T/C (dose: 6.25 mg/kg/injection, vehicle: saline): 95 % of control and 96 % of control; T/C [12]: 96 % of control and 102 % of control; T/C [13]: 100 % of control; T/C [14]: 97 % of control

Question: Which results are given for `CN1CCN(CN2C(=O)C3C4C=CC(C3C2=O)C2C3C(=O)N(CN5CCN(C)CC5)C(=O)C3C42)CC1` (centres undefined)?
Answer: T/C (dose: 16.1 mg/kg/injection, vehicle: water): 103 % of control; T/C (dose: 21.6 mg/kg/injection, vehicle: water): 104 % of control; T/C (dose: 26.8 mg/kg/injection, vehicle: water): 98 % of control; T/C (dose: 36.0 mg/kg/injection, vehicle: water): 102 % of control; T/C (dose: 44.7 mg/kg/injection, vehicle: water): 107 % of control; T/C (dose: 60.0 mg/kg/injection, vehicle: water): 104 % of control; T/C (dose: 74.5 mg/kg/injection, vehicle: water): 103 % of control; T/C (dose: 100.0 mg/kg/injection, vehicle: water): 120 % of control

Question: For `CS(=O)(=O)OCCn1c(=O)n(CCOS(C)(=O)=O)c(=O)n(CCOS(C)(=O)=O)c1=O`, which T/C [15] is on record?
Answer: The T/C was 97 % of control.

Question: And the T/C [16]?
Answer: The T/C was 95 % of control.

Question: And the T/C (dose: 400.0 mg/kg/injection, vehicle: Klucel (hydroxypropylcellulose) (HPC))?
Answer: The T/C was 86 % of control.

Question: What does the source list for `O=c1oc2c(O)c(O)cc3c(=O)oc4c(O)c(O)cc1c4c23`?
Answer: T/C [2]: 116 % of control; T/C [3]: 117 % of control; T/C (dose: 12.5 mg/kg/injection, vehicle: saline with Tween-80): 123 % of control; T/C (dose: 25.0 mg/kg/injection, vehicle: Klucel (hydroxypropylcellulose) (HPC)): 114 % of control and 120 % of control; T/C [11]: 113 % of control; T/C (dose: 50.0 mg/kg/injection, vehicle: Klucel (hydroxypropylcellulose) (HPC)): 114 % of control and 87 % of control; T/C [7]: 114 % of control; T/C [15]: 108 % of control and 88 % of control; T/C [8]: 105 % of control; T/C [16]: 116 % of control; T/C [9]: 115 % of control; T/C [10]: 119 % of control

Question: Which results are given for `CN=C(NC)c1ccc(NC(=O)/C=C\c2ccc(/C=C/C(=O)Nc3ccc(C(=NC)NC)cc3)cc2)cc1`?
Answer: T/C [1]: 110 % of control; T/C (dose: 3.12 mg/kg/injection, vehicle: Klucel (hydroxypropylcellulose) (HPC)): 107 % of control; T/C [2]: 90 % of control

Question: How did the T/C (dose: 0.25 mg/kg/injection, vehicle: distilled water + Tween-80) turn out when `C[n+]1c(-c2cccc(OCCOCCOc3cccc(-c4c5cc(N)ccc5c5ccc(N)cc5[n+]4C)c3)c2)c2cc(N)ccc2c2ccc(N)cc21` was run?
Answer: The T/C was 99 % of control.

Question: And the T/C (dose: 0.5 mg/kg/injection, vehicle: distilled water + Tween-80)?
Answer: Its T/C is 107 % of control.

Question: And the T/C (dose: 1.0 mg/kg/injection, vehicle: distilled water + Tween-80)?
Answer: The T/C was 117 % of control.

Question: How did the T/C (dose: 15.0 mg/kg/injection, vehicle: saline) turn out when `COc1cc2c(cc1O)C1CC(CC3CCCCN31)OC(=O)/C=C\c1ccc(O)c-2c1` (centres undefined) was run?
Answer: The T/C was 101 % of control.

Question: And the T/C (dose: 30.0 mg/kg/injection, vehicle: saline)?
Answer: Its T/C is 104 % of control.

Question: And the T/C (dose: 60.0 mg/kg/injection, vehicle: saline)?
Answer: Its T/C is 114 % of control.

Question: And the T/C (dose: 120.0 mg/kg/injection, vehicle: saline)?
Answer: The T/C was 102 % of control.

Question: `OCCCN1CCCCC1CO` (centres undefined) was tested. Which T/C [12] did it give?
Answer: Its T/C is 94 % of control.

Question: And the T/C [13]?
Answer: The T/C was 106 % of control.

Question: And the T/C [14]?
Answer: Its T/C is 99 % of control.

Question: What about the T/C [4] of the same molecule?
Answer: Its T/C is 105 % of control.

Question: And the T/C [5]?
Answer: The T/C was 101 % of control.

Question: What about the T/C [6] of the same molecule?
Answer: The T/C was 111 % of control and 101 % of control.

Question: What about the T/C (dose: 800.0 mg/kg/injection, vehicle: saline) of the same molecule?
Answer: The T/C was 112 % of control.

Question: `CCC[CH2][Sn]1([CH2]CCC)[O]C2C(CO)OC(n3ccc(N)nc3=O)C2[O]1` (centres undefined) was tested. Which T/C (dose: 0.05 mg/kg/injection, vehicle: Klucel (hydroxypropylcellulose) (HPC)) did it give?
Answer: Its T/C is 94 % of control.

Question: And the T/C (dose: 0.1 mg/kg/injection, vehicle: Klucel (hydroxypropylcellulose) (HPC))?
Answer: The T/C was 90 % of control.

Question: And the T/C (dose: 0.2 mg/kg/injection, vehicle: Klucel (hydroxypropylcellulose) (HPC))?
Answer: Its T/C is 101 % of control.

Question: And the T/C (dose: 0.4 mg/kg/injection, vehicle: Klucel (hydroxypropylcellulose) (HPC))?
Answer: The T/C was 95 % of control.
